Measurements published in US20250324965A1, “Indicator Clearance Monitoring in Machine Perfusion of an Organ” (The Medical College of Wisconsin, Inc., priority 2021, published 2025).
Entries after “also recorded” stand apart in the source; their conditions may differ.

Experiments:
[1] = normal rats; ICG 10 μg/kg, sodium fluorescein 2 mg/kg; cited from earlier work
[2] = normal value; cited from earlier work
[3] = cited from earlier work
[4] = Sodium fluorescein clearance kinetics in blood and bile in the in vivo rat hepatic IRI model; design: species or system Sprague-Dawley rats
Source text: Male 7- to 8-wk-old Sprague-Dawley rats (median body weight of 243 g, interquartile range of 228-260 g, Charles River Laboratories) were housed in an animal facility accredited by the Association for Assessment and Accreditation of Laboratory Animal Care. The rats were fed Purina Lab Diet 5001 and reverse osmosis water ad libitum. All animals received humane care in accordance with the National Institutes of Health Guide for the Care and Use of Laboratory Animals. Only male rats were used in these experiments because multidrug resistance-associated protein 2 (MRP2), which is responsible for fluorescein excretion from the hepatocyte, is impaired by estradiol glucuronide. All experiments were approved by the Institutional Animal Care and Use Committee at the Medical College of Wisconsin (animal use Application No. 00004857).
We evaluated the effect of hepatic IRI on sodium fluorescein clearance by applying different warm ischemia times (WITs; 0 min, 30 min, or 60 min) and reperfusion times (1 h or 4 h). Thus, there were five experimental groups (n=5 each) based on ischemia and reperfusion times: no ischemia (control), brief ischemia (30 min) followed by 1 h of reperfusion, prolonged ischemia (60 min) followed by 1 h of reperfusion, brief ischemia (30 min) followed by 4 h of reperfusion, and prolonged ischemia (60 min) followed by 4 h of reperfusion (FIG. 32A).
Surgery was performed under isoflurane inhalation anesthesia (1%-3%; oxygen flow 1 L/min). Animals were placed on a warming pad set to obtain a temperature of around 39° C. (Far Infrared Warming Pad, Kent Scientific, Torrington, CT). A transverse abdominal incision was made, and the pedicles to the median and lateral lobes of the liver (˜70% of the volume of the liver) were temporarily occluded using a small vascular clamp (FE011K, Aesculap, Melsungen, Germany). This approach has been utilized for testing the effect of hepatic IRI on biliary excretion of fluorescein. During the designated time period for hepatic IRI, the abdominal wall was temporarily closed to prevent dehydration and heat loss.
For injection and sampling, blood vessels and the bile duct were cannulated as follows: a midline incision was made on the neck, and 8- to 10-cm polyethylene tubes were cannulated to the right jugular vein (0.58 mm inner diameter (ID)×0.97 mm outer diameter (OD); PE50, Braintree Scientific, Braintree, MA) and right carotid artery (0.28 mm ID×0.61 mm OD; PE10, Braintree Scientific, Braintree, MA). The polyethylene tubes in the vessels were attached to a 30-gauge blunt needle (SAI Infusion Technologies, Lake Villa, IL) and filled with 20 U/mL heparin in 0.9% saline. Another polyethylene tube (0.28 mm ID×0.61 mm OD; PE10, Braintree Scientific, Braintree, MA) was cannulated into the bile duct for bile sampling (FIG. 33B). The cannulation procedure was performed under a surgical microscope (Amscope, Irvine, CA).
Blood and bile were collected at eight time points over 60 min (0, 2, 5, 10, 20, 30, 45, and 60 min). At each time point, 180 μL of blood was collected by a heparin-coated syringe from the polyethylene tubing in the left carotid artery and mixed with 20 μL of heparin solution (10,000 U/mL). Of this 200-μL blood sample, 20 μL was used for whole blood analysis. The remaining 180 μL was centrifuged (3,000 rpm for 10 min), and 20 μL of supernatant was collected for plasma sample analysis. Likewise, 30 μL of bile was collected from the polyethylene tubing in the bile duct at each time point.
Once the baseline (0 min) samples were collected, sodium fluorescein (Sigma-Aldrich, St. […]
The blood, plasma, and bile samples (20 μL each) were placed in a 384-well plate (Greiner Bio-one, Monroe, NC) and covered with plastic film to minimize evaporation. The fluorescence intensity was measured in the samples using a microplate reader (CLARIOstar, BMG Labtech, Ortenberg, Germany), with the excitation set at 478 nm and emission light collected within the 505-552-nm spectral range. […]

[5] = Fluorescein clearance (bile-to-perfusate fluorescence) in ex vivo rat liver machine perfusion; conditions: WIT varied, CIT constant at 3 hours
Source text: This Example presents data obtained using ex vivo rat liver tissue in a perfusion machine system and provides further evidence supporting the usefulness of such measurements as a way to assess transplant tissue health and quality. With liver transplant there are two ischemia times: warm ischemia time (WIT) which is the time from tissue removal from the donor until cold fluid perfusion into the liver tissue; after cold perfusion, the remaining ischemia is termed cold ischemia time (CIT), which is slower. Most liver tissue can tolerate up to 30 min. of WIT whereas CIT can be tolerated for up to 12 hours. A certain amount of WIT and CIT cannot be prevented since some time is always required at each stage, nevertheless the goal is to minimize WIT.
In the experiments of FIG. 39, the WIT was varied while keeping the CIT constant at 3 hours. After this regimen, the fluorescein clearance was tested and the ratio of fluorescein in bile relative to the amount in perfusate was determined at various times.

Mrp2, Mrp3, and Mrp4 = conditions: daily gavage for 4 days consecutively; normal mouse liver (without IRI); cited from earlier work
[6] = severe hepatic IRI (WIT=60 min) vs control and mild IRI groups, 2 mg/kg i.v.

SMILES | time to reach a steady state [1] [min] | ICG retention ratio after 15 min (ICGR15) [2] [%] | plasma disappearance rate (ICGPDR) [2] | time to equilibrium of fluorescence intensity in hepatocytes and bile ([3]; after dye injection) [min] | time in which metabolism by the liver through membrane transporters and excretion into bile occurs ([3]; healthy liver) [min] | time to clearance from the blood into the bile ([3]; intravenous administration, normal livers) [min] | bile-to-plasma fluorescence ratios across warm ischemia time (WIT) groups ([4]; 2 mg/kg i.v., WIT 0, 30, 60 min, 1 h or 4 h reperfusion) | bile-to-plasma (or bile-to-whole blood) fluorescence ratios in the 60-min WIT group ([4]; 2 mg/kg i.v., vs control or 30-min WIT groups) | excretion of fluorescein measured by fluorescence in bile samples ([4]; IRI vs control, intravenous infusion, preliminary in vivo rat experiment (FIG. 4)) | significant clearance of fluorescein from blood into bile ([4]; i.v. bolus 2 mg/kg) | delay of clearance from blood into bile ([4]; i.v. dose of 10 mg/kg) | hepatic clearance of fluorescein ([4]; in hepatic IRI) | fluorescence intensities in bile [4, 6] | fluorescence intensities in whole blood and plasma [4, 6] | area under the curve (AUC) of bile-to-perfusate fluorescence intensity [5] | time course of bile-to-perfusate fluorescence intensity values (excretion of fluorescein) [5] | induction of Mrp2, Mrp3, and Mrp4 (Mrp2, Mrp3, and Mrp4)
CC1(C)C(/C=C/C=C/C=C/C=C2\N(CCCCS(=O)(=O)O)c3ccc4ccccc4c3C2(C)C)=[N+](CCCCS(=O)(=O)[O-])c2ccc3ccccc3c21 [ICG, Indocyanine green] | < 30 | < 10 | over 18 %/min |  |  |  |  |  |  |  |  |  |  |  |  |  | 
O=C1OC2(c3ccc(O)cc3Oc3cc(O)ccc32)c2ccccc21 [sodium fluorescein] | < 10 |  |  | ≤ 5 | ≤ 15 | ≤ 5 | inverse correlation with WIT; also recorded: stepwise decrease | distinctly lower | noticeably compromised | observed immediately | over 1 h | suppressed | lower | elevated | inversely correlated with WIT | compromised excretion | 
Cc1c(-c2cnccn2)ssc1=S [oltipraz] |  |  |  |  |  |  |  |  |  |  |  |  |  |  |  |  | induced
